These are literature values, as cited in patent publication US20260199259A1, “CONTROLLED LIPID SELF-ASSEMBLY FOR SCALABLE MANUFACTURING OF NEXTGENERATION IMMUNE STIMULATING COMPLEXES” (MASSACHUSETTS INSTITUTE OF TECHNOLOGY, priority 2022, published 2026).

The subject of one series is chick embryo eggs. The conditions noted are these: measured by lethal dose in chick embryo eggs.

In the case of 4′-monophosporyl lipid A [MPLA], in the series with chick embryo eggs, the “factor of toxicity reduction relative to LPS” value was “more than 1000”.
With QS-21, under “aqueous solutions”, the micelle size is listed as ~ 7 nm. Further, under “in PBS”, the solubility entry is given as “up to 30 mg/mL”.
